Each structure is given as a SMILES string. Counter-ions that a name gives are not always drawn.

For this assay, the target named is ATR kinase (Homo sapiens (Human), UniProt Q13535). The experiment in a line: ATR enzyme activity inhibition assay (HTRF). It is filed as biochemical. To be noted: p53 substrate, full-length ATR enzyme. The protocol: The inhibitory ability to ATR kinase for selected compounds was tested by the HTRF (Homogeneous Time-Resolved Fluorescence). In the reaction system, After the substrate p53 is phosphorylated by ATR, the anti-phospho-p53-Eu that serves as an energy donor and specifically binds to the phosphorylation site on p53 is added. Then, the anti-GST-d2 as an energy acceptor that specifically binds to the GST tag carried on p53 is added. […] The IC50 of the sample to be tested can be obtained through graphing and calculation.
Sequence of ATR kinase (Q13535 whole entry): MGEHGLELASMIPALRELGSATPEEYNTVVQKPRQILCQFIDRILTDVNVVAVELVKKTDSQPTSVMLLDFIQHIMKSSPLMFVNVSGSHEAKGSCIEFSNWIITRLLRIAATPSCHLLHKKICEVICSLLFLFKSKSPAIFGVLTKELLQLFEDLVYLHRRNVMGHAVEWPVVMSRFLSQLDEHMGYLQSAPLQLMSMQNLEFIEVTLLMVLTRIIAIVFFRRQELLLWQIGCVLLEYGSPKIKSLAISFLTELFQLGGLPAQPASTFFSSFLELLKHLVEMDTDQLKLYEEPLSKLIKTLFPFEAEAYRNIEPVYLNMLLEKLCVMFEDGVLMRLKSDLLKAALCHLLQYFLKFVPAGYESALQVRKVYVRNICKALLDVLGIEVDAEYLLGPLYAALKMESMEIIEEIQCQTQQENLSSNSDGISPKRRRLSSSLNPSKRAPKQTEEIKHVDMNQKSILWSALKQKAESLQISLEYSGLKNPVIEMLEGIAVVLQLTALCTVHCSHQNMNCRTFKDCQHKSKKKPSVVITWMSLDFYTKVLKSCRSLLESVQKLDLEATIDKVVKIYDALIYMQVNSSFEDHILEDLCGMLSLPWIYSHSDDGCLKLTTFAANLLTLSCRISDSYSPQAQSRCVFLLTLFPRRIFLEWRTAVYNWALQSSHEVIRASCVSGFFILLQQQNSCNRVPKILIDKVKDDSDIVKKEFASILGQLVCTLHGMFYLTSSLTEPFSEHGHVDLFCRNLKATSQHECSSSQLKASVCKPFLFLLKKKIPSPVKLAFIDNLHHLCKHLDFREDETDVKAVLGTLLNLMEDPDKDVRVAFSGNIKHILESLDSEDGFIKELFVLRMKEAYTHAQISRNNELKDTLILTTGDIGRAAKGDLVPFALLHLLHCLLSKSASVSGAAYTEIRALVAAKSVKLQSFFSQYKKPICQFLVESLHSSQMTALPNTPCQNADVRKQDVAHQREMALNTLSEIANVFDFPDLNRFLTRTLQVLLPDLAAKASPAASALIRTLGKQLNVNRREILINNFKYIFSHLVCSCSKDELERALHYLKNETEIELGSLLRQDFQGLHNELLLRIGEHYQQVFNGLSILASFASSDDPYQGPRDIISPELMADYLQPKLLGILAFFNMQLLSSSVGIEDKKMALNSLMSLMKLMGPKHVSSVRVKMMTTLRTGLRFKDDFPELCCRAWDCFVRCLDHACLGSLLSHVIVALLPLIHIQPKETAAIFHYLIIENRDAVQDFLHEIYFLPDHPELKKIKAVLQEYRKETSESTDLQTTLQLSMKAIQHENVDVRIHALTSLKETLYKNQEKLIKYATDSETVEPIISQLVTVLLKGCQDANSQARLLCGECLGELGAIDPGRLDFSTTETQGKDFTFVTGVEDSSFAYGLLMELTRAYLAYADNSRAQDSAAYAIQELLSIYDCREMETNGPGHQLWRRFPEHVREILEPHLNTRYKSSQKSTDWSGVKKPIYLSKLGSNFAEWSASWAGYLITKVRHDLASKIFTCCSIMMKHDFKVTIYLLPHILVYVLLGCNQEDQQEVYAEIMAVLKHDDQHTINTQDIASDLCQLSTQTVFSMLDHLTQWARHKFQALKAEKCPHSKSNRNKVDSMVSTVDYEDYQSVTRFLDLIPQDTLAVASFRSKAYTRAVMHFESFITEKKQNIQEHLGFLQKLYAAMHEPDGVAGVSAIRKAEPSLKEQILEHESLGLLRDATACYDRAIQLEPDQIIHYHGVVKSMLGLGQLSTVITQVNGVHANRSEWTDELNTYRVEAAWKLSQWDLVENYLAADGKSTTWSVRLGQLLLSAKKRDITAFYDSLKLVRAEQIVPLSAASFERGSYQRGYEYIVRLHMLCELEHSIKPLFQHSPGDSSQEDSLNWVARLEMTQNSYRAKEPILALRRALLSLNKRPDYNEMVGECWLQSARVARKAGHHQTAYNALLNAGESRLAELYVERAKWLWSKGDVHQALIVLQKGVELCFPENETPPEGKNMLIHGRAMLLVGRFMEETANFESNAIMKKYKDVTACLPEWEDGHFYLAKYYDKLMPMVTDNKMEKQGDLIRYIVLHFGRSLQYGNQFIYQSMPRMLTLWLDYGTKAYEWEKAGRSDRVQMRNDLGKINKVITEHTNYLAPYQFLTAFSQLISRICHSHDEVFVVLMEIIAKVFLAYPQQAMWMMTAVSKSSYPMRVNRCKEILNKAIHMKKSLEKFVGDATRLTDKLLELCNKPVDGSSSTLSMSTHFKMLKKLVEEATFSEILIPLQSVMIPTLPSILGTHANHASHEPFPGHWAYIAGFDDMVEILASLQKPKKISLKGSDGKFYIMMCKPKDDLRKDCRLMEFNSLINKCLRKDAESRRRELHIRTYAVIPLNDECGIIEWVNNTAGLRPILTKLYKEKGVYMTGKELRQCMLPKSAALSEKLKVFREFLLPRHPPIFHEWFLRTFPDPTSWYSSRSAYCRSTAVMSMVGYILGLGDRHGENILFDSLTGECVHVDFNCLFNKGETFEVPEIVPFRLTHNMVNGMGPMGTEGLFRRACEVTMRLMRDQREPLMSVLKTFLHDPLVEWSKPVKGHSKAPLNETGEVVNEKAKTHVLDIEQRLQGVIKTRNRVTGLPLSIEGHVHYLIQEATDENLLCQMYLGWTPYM
Sequence of ATR kinase (Q8WXE1 whole entry partner): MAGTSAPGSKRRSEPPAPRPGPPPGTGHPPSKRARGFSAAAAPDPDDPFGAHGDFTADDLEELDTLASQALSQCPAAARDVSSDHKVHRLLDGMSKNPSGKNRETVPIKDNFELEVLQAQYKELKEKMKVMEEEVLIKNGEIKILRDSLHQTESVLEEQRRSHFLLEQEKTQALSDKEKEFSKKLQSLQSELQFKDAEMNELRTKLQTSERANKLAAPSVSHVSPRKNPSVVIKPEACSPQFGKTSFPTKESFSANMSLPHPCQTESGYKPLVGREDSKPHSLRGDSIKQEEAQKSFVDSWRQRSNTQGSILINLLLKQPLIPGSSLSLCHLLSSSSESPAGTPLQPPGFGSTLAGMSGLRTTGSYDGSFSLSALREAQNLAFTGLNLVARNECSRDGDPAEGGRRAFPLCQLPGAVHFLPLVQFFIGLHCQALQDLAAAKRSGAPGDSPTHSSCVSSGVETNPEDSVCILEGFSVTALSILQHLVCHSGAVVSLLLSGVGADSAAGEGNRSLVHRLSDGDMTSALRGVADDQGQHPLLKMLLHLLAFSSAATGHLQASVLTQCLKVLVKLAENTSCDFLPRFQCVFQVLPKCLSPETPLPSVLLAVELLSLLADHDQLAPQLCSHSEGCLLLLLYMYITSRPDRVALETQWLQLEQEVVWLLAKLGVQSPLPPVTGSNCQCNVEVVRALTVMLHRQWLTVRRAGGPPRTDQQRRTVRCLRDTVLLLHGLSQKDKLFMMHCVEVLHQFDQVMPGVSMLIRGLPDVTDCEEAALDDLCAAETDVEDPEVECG
Prepare various buffer systems required for the experiment: • 1. […] Prepare detection buffer: Dilute each of the anti-phospho-p53-Eu cryptate (Cisbio, Cat #61P08KA) and anti-GST-d2 (Cisbio, Cat #61GSTDLB) to 1 unit using HTRF detection buffer (Cisbio, Cat #62SDBRDF).
Powdered compounds were dissolved in DMSO to from a stock solution at a concentration of 10 mM. The solution of compounds to be tested at a concentration of […] was performed a 3-fold dilution for 10 concentrations with DMSO. […] 5 μL of ATR was added to each well accordingly. Each well is incubated at 25° C. for 10 min, added with 5 μL of reaction substrate, incubated at 25° C. for 90 min and added with 10 μL of detection solution. […] The inhibition curves of the compounds were made by the four-parameter […] regression equation of XLfit software, and the inhibition rates of the compounds were calculated.
In turn, `CC(C)S(=O)(=O)c1ccc(-c2cnc(N)c(-c3cc(-c4ccc(CNC(=N)N)cc4)no3)n2)cc1` [Example 1, 1-(4-(5-(3-amino-6-(4-(isopropylsulfonyl)phenyl)pyrazin-2-yl)isoxazol-3-yl)benzyl)guanidine dihydrochloride] returned an IC50 of 0.97 nM.

Compound `CNCc1ccc(-c2cc(-c3nc(-c4ccc(S(=N)(=O)C(C)C)cc4)cnc3N)on2)cc1` (centres unmarked) [Example 2, (4-(5-amino-6-(3-(4-((methylamino)methyl)phenyl)isoxazol-5-yl)pyrazin-2-yl)phenyl)(imino)(isopropyl)-λ^6-sulfoxide] gave a concentration for half-maximal inhibition (IC50) of 2.79 nM.

Compound `CC(C)S(=O)(=O)c1ccc(-c2cnc(N)c(-c3cc(-c4ccc5[nH]nnc5c4)no3)n2)cc1` [Example 3, 3-(3-(1H-benzo[d][1,2,3]triazol-5-yl)isoxazol-5-yl)-5-(4-(isopropylsulfonyl)phenyl)pyrazin-2-amine] gave an IC50 of 1.6 nM.

`CC(C)S(=O)(=O)c1ccc(-c2cnc(N)c(-c3cc(-c4ccc(CNC(=N)N)cc4F)no3)n2)cc1` [Example 4, 1-(4-(5-(3-amino-6-(4-isopropylsulfonyl)phenyl)pyrazin-2-yl)isoxazol-3-yl)-3-fluorobenzyl)guanidine dihydrochloride] showed an IC50 of 0.83 nM. Compared with the last compound, the IC50 is about 1.9-fold lower.

The compound `CC(C)S(=O)(=O)c1ccc(-c2cnc(N)c(-c3cc(-c4ccc(CNC(=O)NC5CC5)cc4)no3)n2)cc1` [Example 5, 1-(4-(5-(3-amino-6-(4-(isopropylsulfonyl)phenyl)pyrazin-2-yl)isoxazol-3-yl)benzyl)-3-cyclopropylurea] yielded an IC50 of 2.32 nM.

Take `CCNC(=O)NCc1ccc(-c2cc(-c3nc(-c4ccc(S(=O)(=O)C(C)C)cc4)cnc3N)on2)cc1` [Example 6, 1-(4-(5-(3-amino-6-(4-(isopropylsulfonyl)phenyl)pyrazin-2-yl)isoxazol-3-yl)benzyl)-3-ethylurea]: the IC50 turned out to be 2.9 nM.

As to `CNC(=O)NCc1ccc(-c2cc(-c3nc(-c4ccc(S(=O)(=O)C(C)C)cc4)cnc3N)on2)cc1` [Example 7, 1-(4-(5-(3-amino-6-(4-(isopropylsulfonyl)phenyl)pyrazin-2-yl)isoxazol-3-yl)benzyl)-3-methylurea], it took 1.04 nM to reach half-maximal inhibition (IC50).

On to `CC(C)S(=O)(=O)c1ccc(-c2cnc(N)c(-c3cc(-c4ccc(CNS(N)(=O)=O)cc4)no3)n2)cc1` [Example 8, 3-(3-(4-((aminosulfonyl)aminomethylene)phenyl)isoxazol-5-yl)-5-(4-(isopropylsulfonyl)phenyl)pyrazin-2-amine], for which the midpoint of inhibition, the IC50, lay at 3.64 nM.

`CN(C)S(=O)(=O)c1ccc(-c2cnc(N)c(-c3cc(-c4ccc(CNC(=N)N)cc4)no3)n2)cc1` [Example 10, 4-(5-amino-6-(3-(4-(guanidinomethyl)phenyl)isoxazol-5-yl)pyrazin-2-yl)-N,N-dimethylbenzenesulfonamide dihydrochloride]: the IC50 is 1.75 nM.

`CC(C)S(=O)(=O)c1ccc(-c2cnc(N)c(-c3cc(-c4c(F)cc(CNC(=N)N)cc4F)no3)n2)cc1` [Example 11, 1-(4-(5-(3-amino-6-(4-(isopropylsulfonyl)phenyl)pyrazin-2-yl)isoxazol-3-yl)-3,5-difluorobenzyl)guanidine dihydrochloride] displayed a 50% inhibitory concentration (IC50) of 0.82 nM.

With `CN=S(=O)(c1ccc(-c2cnc(N)c(-c3cc(-c4ccc(CNC(=N)N)cc4)no3)n2)cc1)C(C)C` (centres unmarked) [Example 13, 1-(4-(5-(3-amino-6-(4-(N-methylpropan-2-yl-sulfonimido)phenyl)pyrazin-2-yl)isoxazol-3-yl)benzyl)guanidine dihydrochloride], half-maximal inhibition (IC50) was put at 1.68 nM.

Compound `CNC(=O)Nc1ccc(-c2cc(-c3nc(-c4ccc(S(=O)(=O)C(C)C)cc4)cnc3N)on2)cc1` [Example 14, 1-(4-(5-(3-amino-6-(4-(isopropylsulfonyl)phenyl)pyrazin-2-yl)isoxazol-3-yl)phenyl)-3-methylurea] had a 50% inhibitory concentration (IC50) of 1.42 nM. This IC50 and that of the compound before are within 1.5-fold of each other.

`CC(C)S(=O)(=O)c1ccc(-c2cnc(N)c(-c3cc(-c4ccc(NC(N)=O)cc4)no3)n2)cc1` [Example 15, 1-(4-(5-(3-amino-6-(4-(isopropylsulfonyl)phenyl)pyrazin-2-yl)isoxazol-3-yl)phenyl)urea]: the midpoint of inhibition, the IC50, lay at 2 nM.

`CC(C)S(=O)(=O)c1ccc(-c2cnc(N)c(-c3cc(-c4ccc(NC(=N)N)cc4)no3)n2)cc1` [Example 16, 1-(4-(5-(3-amino-6-(4-(isopropylsulfonyl)phenyl)pyrazin-2-yl)isoxazol-3-yl)phenyl)guanidine] yielded a concentration for half-maximal inhibition (IC50) of 9.74 nM.

With `CNC(=N)Nc1ccc(-c2cc(-c3nc(-c4ccc(S(=O)(=O)C(C)C)cc4)cnc3N)on2)cc1` [Example 17, 1-(4-(5-(3-amino-6-(4-(isopropylsulfonyl)phenyl)pyrazin-2-yl)isoxazol-3-yl)phenyl)-3-methylguanidine dihydrochloride], the IC50 was 0.93 nM.

In the case of `CCNC(=N)Nc1ccc(-c2cc(-c3nc(-c4ccc(S(=O)(=O)C(C)C)cc4)cnc3N)on2)cc1` [Example 18, 1-(4-(5-(3-amino-6-(4-(isopropylsulfonyl)phenyl)pyrazin-2-yl)isoxazol-3-yl)phenyl)-3-ethylguanidine dihydrochloride], the IC50 stood at 1.16 nM. This IC50 and that of the compound before are within 1.5-fold of each other.

For the compound `CNC(=N)Nc1ccc(-c2cc(-c3nc(-c4ccc(S(=O)(=O)C(C)C)cc4)cnc3N)on2)nc1` [Example 19, 1-(6-(5-(3-amino-6-(4-(isopropylsulfonyl)phenyl)pyrazin-2-yl)isoxazol-3-yl)pyridin-3-yl)-3-methylguanidine dihydrochloride], the IC50 turned out to be 1.26 nM.

`CNC(=N)Nc1ccc(-c2cc(-c3nc(-c4ccc(S(=O)(=O)C(C)C)cc4)cnc3N)on2)c(F)c1` [Example 20, 1-(4-(5-(3-amino-6-(4-(isopropylsulfonyl)phenyl)pyrazin-2-yl)isoxazol-3-yl)-3-fluorophenyl)-3-methylguanidine dihydrochloride]: it took 1.81 nM to reach half-maximal inhibition (IC50).

As for `CC(C)S(=O)(=O)c1ccc(-c2cnc(N)c(-c3cc(-c4ccc5[nH]c(=O)[nH]c5c4)no3)n2)cc1` [Example 21, 5-(5-(3-amino-6-(4-(isopropylsulfonyl)phenyl)pyrazin-2-yl)isoxazol-3-yl)-1,3-dihydro-2H-benzo[d]imidazol-2-one], half-maximal inhibition (IC50) required 1.31 nM.

`CC(C)S(=N)(=O)c1ccc(-c2cnc(N)c(-c3cc(-c4ccc5[nH]c(=O)[nH]c5c4)no3)n2)cc1` (centres unmarked) [Example 22, 5-(5-(3-amino-6-(4-(propan-2-ylsulfonimido)phenyl)pyrazin-2-yl)isoxazol-3-yl)-1,3-dihydro-benzimidazol-2-one dihydrochloride] came in with a concentration for half-maximal inhibition (IC50) of 1.21 nM. This IC50 and that of the compound before are within 1.5-fold of each other.

On to `N=C(N)NCc1ccc(-c2cc(-c3nc(-c4ccc(S(=O)(=O)C5CC5)cc4)cnc3N)on2)cc1` [Example 23, 1-(4-(5-(3-amino-6-(4-(cyclopropylsulfonyl)phenyl)pyrazin-2-yl)isoxazol-3-yl)benzyl)guanidine dihydrochloride], for which half-maximal inhibition (IC50) was put at 0.7 nM.

As to `CC(C)S(=O)(=O)c1ccc(-c2cnc(N)c(-c3cc(-c4ccc(CNC(=N)N)c(F)c4)no3)n2)cc1` [Example 24, 1-(4-(5-(3-amino-6-(4-(isopropylsulfonyl)phenyl)pyrazin-2-yl)isoxazol-3-yl)-2-fluorobenzyl)guanidine dihydrochloride], the half-inhibitory concentration (IC50) was 1.08 nM. Compared with the last compound, the IC50 is about 1.5-fold higher.

Regarding `CN(C)C(=O)c1ccc(-c2cnc(N)c(-c3cc(-c4ccc(CNC(=N)N)cc4)no3)n2)cc1` [Example 25, 4-(5-amino-6-(3-(4-(guanidinomethyl)phenyl)isoxazol-5-yl)pyrazin-2-yl)-N,N-dimethylbenzamide dihydrochloride], the half-maximal inhibitory concentration (IC50) is 1.98 nM.

Compound `CC(C)S(=O)(=O)c1ccc(-c2cnc(N)c(-c3cc(-c4ccc(C(=O)NC(=N)N)cc4)no3)n2)cc1` [Example 26, dihydrochloride] gave an IC50 of 2.06 nM.

`N=C(N)NCc1ccc(-c2cc(-c3nc(-c4ccc5c(c4)CCS5(=O)=O)cnc3N)on2)cc1` [Example 27, 1-(4-(5-(3-amino)-6-(1,1-dioxo-2,3-dihydrobenzo[b]thiophen-5-yl)pyrazin-2-yl)isoxazol-3-yl)benzyl)guanidine dihydrochloride] returned an IC50 of 0.75 nM.

The compound `CC(=N)NCc1ccc(-c2cc(-c3nc(-c4ccc(S(=O)(=O)C(C)C)cc4)cnc3N)on2)cc1` [Example 28, N-(4-(5-(3-amino-6-(4-(isopropylsulfonyl)phenyl)pyrazin-2-yl)isoxazol-3-yl)benzyl)acetamidine dihydrochloride] showed an IC50 of 1.29 nM.

Compound `CC(C)S(=O)(=O)c1ccc(-c2cnc(N)c(-c3cc(-c4ccc(CNC(=N)N)cc4C(F)(F)F)no3)n2)cc1` [Example 30, 1-(4-(5-(3-amino-6-(4-(isopropylsulfonyl)phenyl)pyrazin-2-yl)isoxazol-3-yl)-3-(trifluoromethyl)benzyl)guanidine dihydrochloride] had an IC50 of 3.35 nM.

Turning to `CC(C)S(=O)(=O)c1ccc(-c2cnc(N)c(-c3cc(-c4ccc5c(c4)CNC5=O)no3)n2)cc1` [Example 31], the midpoint of inhibition, the IC50, lay at 4 nM.

`CNCc1ccc(-c2cc(-c3nc(-c4ccc5c(c4)C(F)C(C)(C)S5(=O)=O)cnc3N)on2)cc1` (centres unmarked) [Example 32, 5-(5-amino-6-(3-(4-((methylamino)methyl)phenyl)isoxazol-5-yl)pyrazin-2-yl)-3-fluoro-2,2-dimethyl-2,3-dihydrobenzo[b]thiophene 1,1-dioxide] displayed an IC50 of 2.09 nM.
